The record followed here is the supplement of paper PMC12317010.

This data set is described as follows: collision cross section in nitrogen (drift tube, single-field); higher = larger gas-phase ion size.
Setting [1] is: ion type: [M+H], ion source: ESI, ion mode: Positive.
Setting [2] is: ion type: [M+Na], ion source: ESI, ion mode: Positive.
[3] abbreviates: ion type: [M-H], ion source: ESI, ion mode: Negative.
Where [4] appears, read: ion type: [M+H], ion source: APCI, ion mode: Positive.

Structures can show the parent of a compound that is named as a salt.
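Also: chemical standards at 10 µM analysed by drift tube IMS-QTOF MS in about 3.95 torr nitrogen, mean of duplicate injections differing ≤1%, mass error below 10 ppm.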

On to `Cc1ccc2nc(-c3ccc(N)cc3)sc2c1S(=O)(=O)O` [2-(4-Aminophenyl)-6-methylbenzothiazole sulfonic acid], for which the “collision cross section in nitrogen” value was found to be 171.7 Å² under setting [1], 185.9 Å² under setting [2] and 174.2 Å² under setting [3].

On to `N#CCCOCCOCCC#N` [3,3'-(Ethylenedioxy)dipropiononitrile], for which the “collision cross section in nitrogen” value under setting [2] worked out at 143 Å².

Regarding `CN1[C@@H]2C[C@@H](OC(=O)[C@H](CO)c3ccccc3)C[C@H]1[C@@H]1O[C@@H]12` [Scopolamine hydrobromide], the “collision cross section in nitrogen” value by setting is: under setting [4], 170.8 Å²; under setting [1], 171.7 Å².

In the case of `CCOC(=O)COc1cc(-n2ncc(C(F)(F)F)c(C)c2=O)c(F)cc1Cl` [Flufenpyr-ethyl], the “collision cross section in nitrogen” value is recorded as 182.1 Å² under setting [1], 191.4 Å² under setting [2] and 183.3 Å² under setting [3].

On to `NNC(=O)c1cccc(C(=O)NN)c1` [Isophthalyl dihydrazide], for which the “collision cross section in nitrogen” value is, setting by setting: under setting [1], 149.1 Å²; under setting [3], 145 Å².

With `O=C(N[C@@H](Cc1ccccc1)[C@@H](O)C(=O)N1C[C@@H](O)[C@@H](O)C1)c1cc2cc(Cl)ccc2[nH]1` [Ingliforib], the “collision cross section in nitrogen” value runs as follows: under setting [4], 215.9 Å²; under setting [1], 216 Å²; under setting [2], 220.4 Å²; under setting [3], 206.2 Å².

As to `CCC(=NOC/C=C/Cl)C1=C(O)CC(C2CCOCC2)CC1=O` (stereo not given) [Tepraloxydim], the “collision cross section in nitrogen” value reads like this: under setting [1], 185.8 Å²; under setting [2], 191.1 Å²; under setting [3], 181.1 Å².

Consider `On1nnc2ccccc21` [1-Hydroxybenzotriazole], for which the “collision cross section in nitrogen” value under setting [4] is given as 124.9 Å², the “collision cross section in nitrogen” value under setting [1] is 125.9 Å² and the “collision cross section in nitrogen” value under setting [3] is given as 122.6 Å².

Take `CCCCOCCOCCOC(C)=O` [Diethylene glycol monobutyl ether acetate]: under setting [2], the “collision cross section in nitrogen” value worked out at 150.1 Å².

Regarding `CN(C)[C@@H]1C(O)=C(C(N)=O)C(=O)[C@@]2(O)C(O)=C3C(=O)c4c(O)cccc4[C@@](C)(O)[C@H]3[C@H](O)[C@@H]12` [Oxytetracycline hydrochloride], the “collision cross section in nitrogen” value is 199.9 Å² under setting [4], 197.8 Å² under setting [1], 207.7 Å² under setting [2] and 198.4 Å² under setting [3].

Turning to `O=C(Nc1ccccc1)c1ccccc1I` [Benodanil], the “collision cross section in nitrogen” value is, setting by setting: under setting [4], 146.6 Å²; under setting [1], 146.3 Å²; under setting [2], 161.1 Å²; under setting [3], 155.4 Å².

As for `CC[C@H]1OC(=O)[C@H](C)[C@@H](O[C@H]2C[C@@](C)(OC)[C@@H](O)[C@H](C)O2)[C@H](C)[C@@H](O[C@@H]2O[C@H](C)C[C@H](N(C)C)[C@H]2O)[C@](C)(O)C[C@@H](C)C(=O)[C@H](C)[C@@H](O)[C@]1(C)O` [Erythromycin], the “collision cross section in nitrogen” value runs as follows: under setting [4], 258.5 Å²; under setting [1], 257.1 Å²; under setting [2], 262.9 Å².

Take `O=C(Nc1ccc2[nH]ccc2c1)c1cc2cc(F)ccc2n1Cc1cccc(F)c1`: the “collision cross section in nitrogen” value reads like this: under setting [4], 195.9 Å²; under setting [1], 195.7 Å²; under setting [2], 202.1 Å²; under setting [3], 193.8 Å².

For the compound `CN(C)CCCN1c2ccccc2Sc2ccc(Cl)cc21` [Chlorpromazine hydrochloride], the “collision cross section in nitrogen” value by setting is: under setting [4], 170.8 Å²; under setting [1], 171.2 Å².

For `CC(C)(C)c1cc(Cc2cc(C(C)(C)C)c(O)c(C(C)(C)C)c2)cc(C(C)(C)C)c1O` [4,4'-Methylenebis(2,6-di-t-butylphenol)], the “collision cross section in nitrogen” value under setting [3] came out at 221.2 Å².

As for `CC(O)CNCC(C)O` (stereo not given) [Diisopropanolamine], under setting [1], the “collision cross section in nitrogen” value is 128.2 Å².

In the case of `CCN(CC)C(=O)c1cc(S(=O)(=O)Cc2ccccc2)c(N2CCC(c3ccccc3)CC2)cc1N(CC)CCN(C)C` [HMR1171 trifluoroacetate (1:1)], the “collision cross section in nitrogen” value under setting [4] is on record as 249.1 Å², the “collision cross section in nitrogen” value under setting [1] is given as 249.1 Å², the “collision cross section in nitrogen” value under setting [2] worked out at 251.8 Å² and the “collision cross section in nitrogen” value under setting [3] is 250 Å².

`COC(=O)C1=C(C)NC(C)=C(C(=O)OCCN(C)Cc2ccccc2)C1c1cccc([N+](=O)[O-])c1` (stereo not given) [Nicardipine hydrochloride]: the “collision cross section in nitrogen” value is 213 Å² under setting [4]; 212.6 Å² under setting [1]; 211.2 Å² under setting [2]; 208.8 Å² (ion type: [M+], ion source: APCI, ion mode: Positive); 214.2 Å² under setting [3].
